Series [1] relates to SARS-CoV-2. Details: method as in PMID 33290767, PMID 35456990, PMID 33671463. The note with it: Vero cells; read-out: IC50 against SARS-CoV-2; cited from earlier work.
Series [2] can be described thus: in vitro. Conditions: African green monkey.
In series [3] the test system is SARS-CoV-2. Description: Anti-SARS-CoV-2 virus yield reduction assay (qRT-PCR) on Vero cells. Conditions: for Anti-SARS-CoV-2 Activity, % Inhibition at 10 µM: 0.1 MOI, virus yield reduction qRT-PCR; for EC50: read-out: Anti-SARS-CoV-2 Activity, EC50, antiviral dose–response, 2 days post-treatment.
Series [4] deals with SARS-CoV-2 2′-O-MTase (Nsp10–16) (Severe acute respiratory syndrome coronavirus 2, UniProt P0DTD1). Briefly: MTaseGlo coupled assay of Nsp10–16 RNA methyltransferase activity. It is filed as biochemical. Conditions: 25 nM Nsp10–16, 300 nM Cap-0 RNA, 5 µM SAM, 15 min; read-out: 2′-O-MTase Inhibition IC50.
The nature of series [5]: in vitro.
The next series deals with SARS-CoV-2 2′-O-MTase. Details: method as in PMID 33874769. Conditions: control nucleoside-based methyltransferase inhibitor; read-out: 2′-O-MTase Inhibition IC50; cited from earlier work.
Setting [6] is: peripheral blood mononuclear (PBM) cells.

Like-named read-outs stand apart in the source and are kept apart here. Bounds are passed on as bounds.

Take `C=C(C)[C@@H]1CCC(C)=C[C@H]1c1c(O)cc(CCCCC)cc1O` [CBD, cannabidiol]: the half-maximal inhibitory concentration (IC50) in the series on SARS-CoV-2 [1] is 7.9 µM.
In turn, `Cc1ccc2c(c1)-c1c(ccc(C(=O)c3ccc(O)cc3O)c1O)OC2(C)C` [CPM-1, (2,4-dihydroxyphenyl)(1-hydroxy-6,6,9-trimethyl-6H-benzo[c]chromen-2-yl)methanone] came in with a CC50 in the series “in vitro [2]” of more than 100 µM. For the same compound, in the series on SARS-CoV-2 [3], the “Anti-SARS-CoV-2 Activity, % Inhibition at 10 µM” value stood at 98.9% and the half-maximal effective concentration (EC50) was 7.65 µM. In addition, the IC50 in series [4] came to 1.5 ± 0.2 µM. The same compound gave a CC50 in “in vitro [5]” of more than 100 µM.
In the case of `Cc1ccc2c(c1)-c1cc(C(=O)c3ccc(O)cc3O)c(O)cc1OC2(C)C` [CPM-2, (2,4-dihydroxyphenyl)(3-hydroxy-6,6,9-trimethyl-6H-benzo[c]chromen-2-yl)methanone], the CC50 in the series “in vitro [2]” was found to be 55.4 µM. In the series on SARS-CoV-2 [3], the “Anti-SARS-CoV-2 Activity, % Inhibition at 10 µM” value worked out at 98.1% and the half-maximal effective concentration (EC50) stood at 8.6 µM. Further, the IC50 in series [4] stood at 6.7 ± 0.5 µM. Further, the CC50 in “in vitro [5]” was 41.2 µM.
The compound `CCC(CC)COC(=O)[C@H](C)N[P@](=O)(OC[C@H]1O[C@@](C#N)(c2ccc3c(N)ncnn23)[C@H](O)[C@@H]1O)Oc1ccccc1` [Remdesivir, reference compound] had a CC50 in the series “in vitro [2]” (Vero cells (kidney)) of more than 100 µM. Besides, in the series on SARS-CoV-2 [3], the “Anti-SARS-CoV-2 Activity, % Inhibition at 10 µM” value is given as 99.9% and the EC50 stood at 2.3 µM. This compound came in with a CC50 in “in vitro [5]” (setting [6]) of 2 µM.
For `Nc1ncnc2c1ncn2[C@@H]1O[C@H](C[C@@H](N)CC[C@H](N)C(=O)O)[C@@H](O)[C@H]1O` [Sinefungin], the IC50 at SARS-CoV-2 2′-O-MTase was 3.4 ± 0.4 µM.
`CC1=CC[C@@H]2[C@@H](C1)c1c(ccc(C(=O)c3ccc(O)cc3O)c1O)OC2(C)C` [TPM-1, (2,4-dihydroxyphenyl)((6aR,10aR)-1-hydroxy-6,6,9-trimethyl-6a,7,10,10a-tetrahydro-6H-benzo[c]chromen-2-yl)methanone] registered a CC50 in “in vitro [2]” (Vero cells (kidney)) of 13.2 µM. Further, in the series with SARS-CoV-2 [3], the “Anti-SARS-CoV-2 Activity, % Inhibition at 10 µM” value was 99.3% and the half-maximal effective concentration (EC50) stood at 4.3 µM. For the same compound, the IC50 in series [4] stood at 2.8 ± 0.5 µM. Further, the CC50 in “in vitro [5]” (setting [6]) was 59.2 µM.
The compound `CC1=CC[C@@H]2[C@@H](C1)c1cc(C(=O)c3ccc(O)cc3O)c(O)cc1OC2(C)C` [TPM-2, (2,4-dihydroxyphenyl)((6aR,10aR)-3-hydroxy-6,6,9-trimethyl-6a,7,10,10a-tetrahydro-6H-benzo[c]chromen-2-yl)methanone] showed a CC50 in the series “in vitro [2]” (Vero cells (kidney)) of 45.2 µM. Further, in the series with SARS-CoV-2 [3], the “Anti-SARS-CoV-2 Activity, % Inhibition at 10 µM” value came out at 98.9% and the EC50 came to 7.8 µM. In addition, the 50% inhibitory concentration (IC50) in series [4] was found to be 6.4 ± 1.5 µM. In addition, in “in vitro [5]” (setting [6]), the CC50 came to 34.9 µM.
`CCCCCc1cc(O)c2c(c1)OC(C)(C)[C@@H]1CCC(C)=C[C@@H]21` [Δ^9-THC, delta-9-tetrahydrocannabinol]: in the series on SARS-CoV-2 [1], the IC50 is 10.3 µM.

(Values after PMC11547505 (Molecules, 2024).)
